Laboratory results from article PMC11367390 (RSC Advances, 2024).

Biological target: α-Glucosidase from Saccharomyces cerevisiae (Saccharomyces cerevisiae, UniProt P53341)
Experiment: In vitro α-glucosidase inhibition study
Conditions: for inhibition at 25 µM: pH 6.8, read-out: Inhibition at 25 μM (%); for IC50: IC50, μM, average value ± standard deviation, p-nitrophenyl α-D-glucoside substrate, pH 6.8, 37 °C

Chain of α-Glucosidase from Saccharomyces cerevisiae (P53341 whole entry): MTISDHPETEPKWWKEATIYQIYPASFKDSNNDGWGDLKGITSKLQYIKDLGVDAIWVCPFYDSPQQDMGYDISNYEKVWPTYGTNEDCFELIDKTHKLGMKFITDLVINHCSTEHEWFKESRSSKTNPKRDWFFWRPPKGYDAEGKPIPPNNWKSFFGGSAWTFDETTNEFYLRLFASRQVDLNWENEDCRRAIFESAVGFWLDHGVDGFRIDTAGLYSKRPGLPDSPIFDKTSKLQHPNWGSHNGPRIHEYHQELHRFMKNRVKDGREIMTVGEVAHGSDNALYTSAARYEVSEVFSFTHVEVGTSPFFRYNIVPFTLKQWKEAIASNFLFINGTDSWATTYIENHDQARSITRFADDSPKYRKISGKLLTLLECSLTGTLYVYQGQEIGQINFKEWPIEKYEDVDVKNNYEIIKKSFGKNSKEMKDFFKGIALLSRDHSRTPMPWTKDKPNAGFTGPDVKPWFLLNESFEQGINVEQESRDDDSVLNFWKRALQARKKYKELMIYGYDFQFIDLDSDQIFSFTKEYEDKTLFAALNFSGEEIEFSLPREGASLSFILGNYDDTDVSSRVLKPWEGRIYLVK

Structure (SMILES)	inhibition at 25 µM [%]	IC50 [µM]
Cc1cc(=O)oc2c(Cn3cnc4ccccc43)c(O)ccc12 [Compound 10b]	69.3	21.1 ± 0.7
COc1ccc(-c2coc3c(Cn4cnc5ccccc54)c(O)ccc3c2=O)cc1 [Compound 10d]	64.6	20.6 ± 2.1
Cc1cc(C)n(Cc2c(O)ccc3c(=O)c(-c4ccc(O)cc4)coc23)n1 [Compound 12c]	42.8	27.4 ± 1.9
COc1ccc(-c2coc3c(Cn4ncc5ccccc54)c(O)ccc3c2=O)cc1 [Compound 13b]	73	17.1 ± 2.8
O=c1c(-c2ccc(OC(F)(F)F)cc2)coc2c(Cn3cnc4ccccc43)c(O)ccc12 [Compound 10h]	99.1	9.5 ± 1.6
Cc1cc(C)n(Cc2c(O)ccc3c(=O)c(-c4ccc(OC(F)(F)F)cc4)coc23)n1 [Compound 12i]	94	5.8 ± 0.2
COc1ccc(-c2c(C)oc3c(Cn4cnc5ccccc54)c(O)ccc3c2=O)cc1 [Compound 10f]	48.6	25.5 ± 7.9

Next, values leading:

inhibition at 25 µM [%]	IC50 [µM]	Structure (SMILES)
39		O=c1c(-c2ccc(OC(F)(F)F)cc2)coc2cc(O)ccc12 [Compound 6j, 7-hydroxy-4′-trifluoromethoxyisoflavone]
50.3	23.9 ± 2.3	COc1ccc(-c2coc3c(Cn4cc5ccccc5n4)c(O)ccc3c2=O)cc1 [Compound 14b]
53.4	23.6 ± 1.8	Cc1cc(=O)oc2c(Cn3ccnc3)c(O)ccc12 [Compound 9b]
84.1	14.3 ± 2	O=c1c(-c2ccc(OC(F)(F)F)cc2)coc2c(Cn3cccn3)c(O)ccc12 [Compound 11j]
42	27 ± 0.2	O=c1c(-c2ccc(O)cc2)coc2c(Cn3ccnc3)c(O)ccc12 [Compound 9d]
67.3	20.9 ± 2.5	COc1ccc(-c2coc3c(Cn4nc(C)cc4C)c(O)ccc3c2=O)cc1 [Compound 12d]
